Assay results taken from ChEMBL document CHEMBL2062490, “The discovery of new potent non-peptide Angiotensin II AT1 receptor blockers: a concise synthesis, molecular docking studies and biological evaluation of N-substituted 5-butylimidazole derivatives” (Eur J Med Chem, 2012).

Columns and labels:
[1] = biological target: T1, Type-1 angiotensin II receptor (Homo sapiens, UniProt P30556); assay: (§1) Displacement of 125[I-Sar1-Ile8]ANG II from human AT1 receptor expressed in HEK293 membranes after 1 hr by gamma counting; type: cell membranes
T1 sequence (P30556 whole entry): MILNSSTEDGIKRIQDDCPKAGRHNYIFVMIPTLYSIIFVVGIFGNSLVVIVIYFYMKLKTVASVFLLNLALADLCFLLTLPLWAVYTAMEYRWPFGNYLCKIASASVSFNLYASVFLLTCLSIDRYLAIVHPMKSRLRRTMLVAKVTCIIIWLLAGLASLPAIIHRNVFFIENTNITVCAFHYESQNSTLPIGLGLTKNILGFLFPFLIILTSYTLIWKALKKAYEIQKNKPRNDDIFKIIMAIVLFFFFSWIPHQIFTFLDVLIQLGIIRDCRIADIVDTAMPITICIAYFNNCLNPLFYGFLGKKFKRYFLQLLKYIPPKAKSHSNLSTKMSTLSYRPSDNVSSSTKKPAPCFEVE

[2] = biological target: T2, Type-1 angiotensin II receptor (Homo sapiens) (UniProt P30556); assay: as §1; type: cell membranes
T2 sequence (whole entry): T1 sequence (P30556 whole entry)

[3] = Antagonist activity at AT1 receptor in rat uterus assessed inhibition of ANG II-induced contraction

| SMILES | IC50 ([1]; read-out: IC50) | IC50 ([1]; read-out: pIC50 (converted)) | Activity [2] | pA2 [3] |
| --- | --- | --- | --- | --- |
| CCCCc1cnc(C(=O)O)n1Cc1ccc(-c2ccccc2-c2nnn[nH]2)cc1 | 3 nM | 3.47 nM | – | – |
| CCCCc1cnc(CO)n1Cc1ccc(-c2ccccc2-c2nn[nH]n2)cc1 | – | – | Dose-dependent effect | 7.97 |
| CCCCc1c(Cl)nc(CO)n1Cc1ccc(-c2ccccc2-c2nn[nH]n2)cc1 | 634 nM | – | Dose-dependent effect | 6.98 |
| CCCCc1c(I)nc(CO)n1Cc1ccc(-c2ccccc2-c2nn[nH]n2)cc1 | – | – | Dose-dependent effect | 7.35 |
| CCCCc1cnc(C(=O)O)n1Cc1ccc(-c2ccccc2-c2nn[nH]n2)cc1 | – | – | Dose-dependent effect | 7.83 |
| CCCCc1cnc(CO)n1Cc1ccc(-c2ccccc2C(=O)O)cc1 | 245 nM | – | Dose-dependent effect | 6.19 |
| CCCCc1c(Br)nc(CO)n1Cc1ccc(-c2ccccc2-c2nn[nH]n2)cc1 | – | – | Dose-dependent effect | 7.58 |
| CCCCc1cnc(C=O)n1Cc1ccc(-c2ccccc2-c2nn[nH]n2)cc1 | 24 nM | – | Dose-dependent effect | 7.76 |
| CCCCc1c(I)nc(CO)n1Cc1ccc(-c2ccccc2-c2nnn[nH]2)cc1 | 446 nM | – | – | – |
| CCCCc1nc(Cl)c(CO)n1Cc1ccc(-c2ccccc2-c2nnn[nH]2)cc1 | – | – | Dose-dependent effect | – |
| CCCCc1c(Br)nc(CO)n1Cc1ccc(-c2ccccc2-c2nnn[nH]2)cc1 | 117 nM | – | – | – |
| CCCCc1cnc(CO)n1Cc1ccc(-c2ccccc2-c2nnn[nH]2)cc1 | 30 nM | – | – | – |
